Assay results as given in US20160010154A1, “SCREENING ASSAYS FOR THERAPEUTICS FOR PARKINSON'S DISEASE” (THE PARKINSON'S INSTITUTE, priority 2012, published 2016).

Key:
[1] = tested on: LRRK2 G2019S mutant and ZFN-corrected NPCs; assay: ROS production by CM-H2DCFDA fluorescence, flow cytometry; assay type: cell-based, human; settings: 200 μM for 60 min, normal growth conditions, both cell lines
Protocol: Cells were assayed for free radical production using CM-H2DCFDA that can be oxidized and rendered fluorescent by hydroxyl radicals produced by mitochondria. See, e.g., Petronilli et al. (1999) Biophysical journal 76:725-734; Nicholls (2009) Biochimica et biophysica acta 1787:1416-1424. Cytoplasmic fluorescence of this indicator dye in viable cells was assayed by flow cytometry to obtain a signature for cellular oxidative stress.
In particular, for stress experiments, NPCs were seeded 24 hours before being cultured under the following selective media conditions for an additional 18 hours: Standard NPC growth medium as above (HG=high glucose), HG plus 20 μM rotenone (HG+R) (SIGMA # R-8875) or an NPC growth medium formulation based on HG medium without glucose (NG, Life Techn. Neurobasal-A, Formula 05-0128DJ).
For flow cytometry, NPCs were seeded at 80% confluence on either 24-well (1-2×10^5 cells) or 48 well plates (5×10^4 cells) (NUNC #s 142475, 150687) on Geltrex (100 ug/ml protein) coated plates 24 hours before the experiment and then challenged as described above. In general two replicate wells were analyzed in each experimental run. After the respective treatment, cells were sampled by flow cytometry with an Accuri™ C6 cytometer with C-Sampler™ (BD Accuri) and subsequently analyzed using the Cflow® analysis software. […]

[2] = tested on: LRRK2 mutant and ZFN-corrected NPCs; assay: Mitochondrial calcein retention (MTP opening), HCI microscopy; assay type: cell-based, human; settings: rotenone stress, corrected and LRRK2 mutant lines
Protocol: Cells grown on high glucose (HG) with or without 20 uM rotenone (R) or with radical generator TBHP (200 uM). Cells were analyzed by flow cytometry and mean CM-DCFDA fluorescence (Ex./Em. 495/529 nm) of live cells was then normalized to number of viable cells. […] Images: Depicted are representative image overlays showing mitochondrial fluorescence patterns indicative of mitochondrial membrane potential for the corrected (1.7) and uncorrected (1.13) NPCs. […] Mitochondria were loaded with calcein AM and cytosolic fluorescence was quenched by CoCl2. Graph: Relative amount of mitochondrial localized calcein fluorescence identified by Mitotracker™ Red CMXROS co-localization was normalized to cell number. Images: Representative image overlays showing mitochondrial fluorescence patterns indicative of mitochondrial calcein retention and mitochondrial integrity in corrected (1.7) and uncorrected (1.13) NPCs. FIG. 4D is a graph showing HCI analysis of caspase 3/7 activation in LRRK2 NPCs measured by fluorescence activated by caspase 3/7 mediated cleavage of a DEVD peptide-DNA dye conjugate. NPCs were incubated with the caspase substrate and the % of caspase substrate fluorescence positive cells (identified by nuclear Hoechst 33342 counterstain) was determined from 4 sites acquired at 10× magnification. […]

CC(C)(C)OO [TBHP]
ROS response to radical generator [1]: increase of ROS

C=C(C)[C@H]1Cc2c(ccc3c2O[C@@H]2COc4cc(OC)c(OC)cc4[C@@H]2C3=O)O1 [rotenone]
mitochondrial calcein loading [2]: increased mitochondrial calcein loading
